Bounds are passed on as bounds.

The melting point is the temperature of the solid-liquid transition.

In turn, `CCOCc1ccc2oc(C(=O)OCC)c(C)c2c1O` registered a melting point of 97 to 98 °C.
With `O=S1(=O)c2sccc2C(O)CN1Cc1ccncc1` (stereo not given) the figure was 183 to 185 °C; with `CCCC12COC(c3ccc(I)cc3)(OC1)SC2`, 128 to 132 °C; with `C=CCn1c(=O)c2c(nc(/C=C/c3ccc(O)c(OC)c3)n2C)n(CC=C)c1=O`, 202 to 203 °C.
With `CCCCCCCCCCCCCCCCCCNC(=O)OCC(CNS(=O)(=O)CCCI)COC` (stereo not given) the figure was 69 to 70 °C; with `COCCOc1ccc(/C=C/C(=O)NS(=O)(=O)CC(F)(F)F)c(Oc2ncc(C(F)(F)F)cc2Cl)c1`, 146 to 148 °C; with `CC(C)(O)CCCCCc1cccc(CCc2ccc(O)c(CO)c2)c1`, 73 to 75 °C.
Compound `CC(=O)Oc1ccc(-c2cc(=O)c3cc(Br)cc([N+](=O)[O-])c3o2)cc1F` showed a melting point of 236 to 238 °C.
Turning to `CCC[C@H]1C(=O)N(S(=O)(=O)c2ccc3ccccc3c2)[C@H]2CCN(S(C)(=O)=O)[C@H]12` (relative stereo), the melting point was 257 to 260 °C.
Then `COc1ccc2c(c1)CCC1C2=CCC2(C)C1CCC21OCCO1` (stereo not given), with 146 to 149 °C; and `COc1c(C2CCN(CCCCNC(=O)c3cc(-c4ccc(C#N)cc4)nn3CCO)CC2)ccc2c1CCCC2`, with 152 °C.
With `CN1CCN(c2cccc3c2CC[C@@H](NC(=O)c2ccc(N4CCOCC4)cc2)C3)CC1` the figure was 127 to 128 °C.
With `CCCCNC(=O)Nc1ncc(-c2ccncc2)cn1` the figure was 204 to 206 °C; with `COc1cc(CCNc2ncnc3c(F)ccc(F)c23)ccc1Oc1ccc(C(F)(F)F)cn1`, 119 to 121 °C.
For `C#CCOc1ccc(C(=O)O)c(C2=NC(=O)C(C)(C(C)C)N2)n1` (stereo not given), the melting point is 195 to 198 °C.
With `Cc1c(-c2ccccc2)nn(C(C)(C)C(=O)N(C)C)c1Cl` the figure was 96 to 99 °C; with `O=C(Nc1cccc2[nH]ccc12)c1ccccc1OCC1CO1` (stereo not given), 171 °C.
Then `CCc1cc(C(C)(C)c2ccc(C(C)(C)c3cc(CC)c(NC)c(CC)c3)cc2)cc(CC)c1NC`, with 105 to 108 °C; and `C[C@@H](n1cnc2cc(Oc3ccc(Cl)cc3)ccc2c1=O)[C@](O)(Cn1cncn1)c1ccc(F)cc1F`, with 198 to 199 °C.
In turn, `CC(=O)Oc1c(C)c(C)c2c(c1C)CCC(O)O2` (stereo not given) had a melting point of 115 to 120 °C.
Then `Cc1ccc2c3c(ccc2n1)OC[C@H](CN1CCC(Oc2ccc4c(c2)NC(=O)CO4)CC1)O3`, with 149 to 150 °C; and `CC(=O)c1cc2c(c(C)c1O)OC(C)(C)CC2C` (stereo not given), with 96 to 97 °C.
With `Cc1c2ccccc2c2c3c(cccc13)C(=O)OC2=O` the figure was 275 to 280 °C; with `O=C1C(=Cc2ccncc2)C(=O)c2ccccc21`, 152 to 157 °C.
Then `COCCOc1ccc(CCC(=O)O)c(Oc2ncc(C(F)(F)F)cc2Cl)c1`, with 116 to 117 °C; and `CCOC(=O)c1cnc2ccc(F)cc2c1Cl`, with 55 to 57 °C; and `O=C(O)COc1c(-c2ccccc2)cc([N+](=O)[O-])cc1-c1ccccc1`, with 154 to 156 °C.
In turn, `CCCCc1nc(=O)c2cc(C#N)ccc2[nH]1` showed a melting point of 243 to 245 °C.
Take `CCCCCCCCCCCCCCCCCCC(CC1(C)OCCO1)C(=O)OCC` (stereo not given): the melting point lay in the range of 33 to 34 °C.
Then `CC(=O)Nc1nc(CCCCl)cs1`, with 110 to 112 °C; and `N#Cc1ccc(-n2c(N)nc3ccccc32)cc1-c1ccoc1`, with 140 to 144 °C; and `COC(=O)c1nc2cc(C)cc(Cl)c2c(O)c1C(=O)OC`, with 197 to 199 °C.
Then `CC(C)C[C@H]1COCC(=O)N1`, with 69 to 70 °C; and `COc1cc(OC)c(-c2cncnc2)cc1/C=C/C(=O)c1ccc(C(=O)O)cc1`, with above 260 °C; and `CCOC(=O)Cc1cccc(OCc2ccc3oc([N+](=O)[O-])c(-c4ccccc4)c3c2)c1`, with 67 to 68 °C.

For the origin of these results see a melting point compilation (Tetko et al.; mined from patent text by program, amines drawn as free bases though some values may be those of a salt).
